Assay results: US20070238716A1, “STATIN STABILIZING DOSAGE FORMULATIONS” (priority 2006, published 2007)
Structures can show the parent of a compound that is named as a salt.

Test: Solution state stability of the hemi calcium salt of Formula I at various pH conditions
Assay type: physicochemical
Experimental: Solution state stability studies were performed on 7-[2-(4-fluorophenyl)-5-isopropyl-3-phenyl-4-[(4-hydroxymethylphenylamino) carbonyl]-pyrrol- 1-yl]-3,5-dihydroxy-heptanoic acid by solubilizing the hemi calcium salt of Formula I at a range of pH conditions and storing the solution for one or two weeks under different temperature conditions.

## CC(C)c1c(C(=O)Nc2ccc(CO)cc2)c(-c2ccccc2)c(-c2ccc(F)cc2)n1CCC(O)CC(O)CC(=O)O (centres unmarked) [7-[2-(4-fluorophenyl)-5-isopropyl-3-phenyl-4-[(4-hydroxymethylphenylamino)carbonyl]-pyrrol-1-yl]-3,5-dihydroxy-heptanoic acid]
Conclusion from Table 1, more particularly pH 4.5 to pH 12
  pH at which the compound is stable in solution: ≥ 4.5

## CC(C)c1c(C(=O)Nc2ccc(CO)cc2)c(-c2ccccc2)c(-c2ccc(F)cc2)n1CCC(O)CC(O)CC(=O)O (centres unmarked) [hemi calcium salt of Formula I, 7-[2-(4-fluorophenyl)-5-isopropyl-3-phenyl-4-[(4-hydroxymethylphenylamino)carbonyl]-pyrrol-1-yl]-3,5-dihydroxy-heptanoic acid hemicalcium salt]
pH 2.0 Buffer, 1 week, 2-8 °C
  Drug Content: 0.21 mg/mL
pH 2.0 Buffer, 1 week, 25 °C
  Drug Content: 0.22 mg/mL
pH 2.0 Buffer, 1 week, 50 °C
  Drug Content: 0.14 mg/mL
pH 2.0 Buffer, 2 Weeks, 2-8 °C
  Drug Content: 0.19 mg/mL
pH 2.0 Buffer, 2 Weeks, 25 °C
  Drug Content: 0.18 mg/mL
pH 2.0 Buffer, 2 Weeks, 50 °C
  Drug Content: 0.09 mg/mL
pH 2.0 Buffer, Initial
  Drug Content: 0.42 mg/mL
pH 4.5 Buffer, 1 week, 2-8 °C
  Drug Content: 0.50 mg/mL
pH 4.5 Buffer, 1 week, 25 °C
  Drug Content: 0.50 mg/mL
pH 4.5 Buffer, 1 week, 50 °C
  Drug Content: 0.43 mg/mL
pH 4.5 Buffer, 2 Weeks, 2-8 °C
  Drug Content: 0.50 mg/mL
pH 4.5 Buffer, 2 Weeks, 25 °C
  Drug Content: 0.48 mg/mL
pH 4.5 Buffer, 2 Weeks, 50 °C
  Drug Content: 0.38 mg/mL
pH 4.5 Buffer, Initial
  Drug Content: 0.51 mg/mL
pH 5.5 Buffer, 1 week, 2-8 °C
  Drug Content: 0.50 mg/mL
pH 5.5 Buffer, 1 week, 25 °C
  Drug Content: 0.50 mg/mL
pH 5.5 Buffer, 1 week, 50 °C
  Drug Content: 0.45 mg/mL
pH 5.5 Buffer, 2 weeks, 2-8 °C
  Drug Content: 0.50 mg/mL
pH 5.5 Buffer, 2 weeks, 25 °C
  Drug Content: 0.48 mg/mL
pH 5.5 Buffer, 2 weeks, 50 °C
  Drug Content: 0.40 mg/mL
pH 5.5 Buffer, Initial
  Drug Content: 0.50 mg/mL
pH 7.5 Buffer, 1 week, 2-8 °C
  Drug Content: 0.50 mg/mL
pH 7.5 Buffer, 1 week, 25 °C
  Drug Content: 0.50 mg/mL
pH 7.5 Buffer, 1 week, 50 °C
  Drug Content: 0.45 mg/mL
pH 7.5 Buffer, 2 Weeks, 2-8 °C
  Drug Content: 0.49 mg/mL
pH 7.5 Buffer, 2 Weeks, 25 °C
  Drug Content: 0.49 mg/mL
pH 7.5 Buffer, 2 Weeks, 50 °C
  Drug Content: 0.37 mg/mL
pH 7.5 Buffer, Initial
  Drug Content: 0.50 mg/mL
pH 9.0 Buffer, 1 week, 2-8 °C
  Drug Content: 0.49 mg/mL
pH 9.0 Buffer, 1 week, 25 °C
  Drug Content: 0.49 mg/mL
pH 9.0 Buffer, 1 week, 50 °C
  Drug Content: 0.45 mg/mL
pH 9.0 Buffer, 2 Weeks, 2-8 °C
  Drug Content: 0.45 mg/mL
pH 9.0 Buffer, 2 Weeks, 25 °C
  Drug Content: 0.47 mg/mL
pH 9.0 Buffer, 2 Weeks, 50 °C
  Drug Content: 0.42 mg/mL
pH 9.0 Buffer, Initial
  Drug Content: 0.49 mg/mL
pH 10.0 Buffer, 1 week, 2-8 °C
  Drug Content: 0.49 mg/mL
pH 10.0 Buffer, 1 week, 25 °C
  Drug Content: 0.49 mg/mL
pH 10.0 Buffer, 1 week, 50 °C
  Drug Content: 0.45 mg/mL
pH 10.0 Buffer, 2 Weeks, 2-8 °C
  Drug Content: 0.49 mg/mL
pH 10.0 Buffer, 2 Weeks, 25 °C
  Drug Content: 0.47 mg/mL
pH 10.0 Buffer, 2 Weeks, 50 °C
  Drug Content: 0.44 mg/mL
pH 10.0 Buffer, Initial
  Drug Content: 0.49 mg/mL
pH 12.0 Buffer, 1 week, 2-8 °C
  Drug Content: 0.49 mg/mL
pH 12.0 Buffer, 1 week, 25 °C
  Drug Content: 0.49 mg/mL
pH 12.0 Buffer, 1 week, 50 °C
  Drug Content: 0.45 mg/mL
pH 12.0 Buffer, 2 Weeks, 2-8 °C
  Drug Content: 0.49 mg/mL
pH 12.0 Buffer, 2 Weeks, 25 °C
  Drug Content: 0.48 mg/mL
pH 12.0 Buffer, 2 Weeks, 50 °C
  Drug Content: 0.44 mg/mL
pH 12.0 Buffer, Initial
  Drug Content: 0.49 mg/mL
